Results taken from US20150211005A1, “MIRNA MODULATORS OF THERMOGENESIS” (APTAMIR THERAPEUTICS, INC., priority 2012, published 2015).

Key:
[1] = tested on: human subcutaneous adipocytes; test: Phenotypic changes of mature adipocytes cultured two weeks, bright field microscopy; assay type: cell-based; conditions: day 28; for Average size of lipid droplet: change versus control (Ref); for Average size of lipid droplet / Picture field covered by adipocytes (% of control) / Cell area occupied by lipid droplets (%) / Number of lipid droplet per cell: 50 nM miRNA analogs, 10 μM CL316,243, 10 nM T3, 100 nM Rosiglitazone; for Picture field covered by adipocytes (% of control): Dharmafect 4; for Cell area occupied by lipid droplets (%): control 42%; for Number of lipid droplet per cell: control 68
Procedure: Human subcutaneous adipocytes were plated in 6-well plates at a density of 391,000 cells per well as described above. Using Dharmafect 4, these adipocytes were transfected at Day 14 with:
1. […] A negative control (mock transfection) 3.
At day 17, the cells were switched to maintenance medium, which was then changed every two-three days until day 28 when bright field microscopy pictures of the cells were taken.

UCP1 = test: RNA-Seq mRNA expression during pre-adipocyte differentiation: UCP1; assay type: cell-based, human; conditions: pre-adipocytes, 12 days, rosiglitazone 100 nM renewed every other day, miRNA analogs 25 nM, one transfection
Procedure: (§1) In order to assess the effect of miRNA analogs on human pre-adipocytes differentiation into mature adipocytes, human subcutaneous pre-adipocytes (SuperLot 0048 from 8 female donors, ZenBio, NC) were plated on Day 0 into 96-well plates and allowed to attach overnight in preadipocyte medium (DMEM/Ham's F-12 (1:1, v/v), HEPES buffer, Fetal bovine serum and Antibiotics). […] All treatments were in triplicate. Post transfection, the negative control was maintenance medium only and the positive control was maintenance medium with 100 nM of the PPARG agonist rosiglitazone. After 2 days, medium was removed and replaced with fresh maintenance medium. The maintenance medium then changed every two days until the end of the treatment period (Day 15). At the end of the treatment (total of 15 days in culture) cells were processed for Phenotyping and Genotyping Screening.
(§2) Profiling of mRNA changes occurring during the differentiation of human pre-adipocyte into mature adipocyte induced by rosiglitazone or miRNA analogs was performed by RNA-Seq technology. […]
(§3) Changes in mRNA expression of UCP1, 2 and 3 were also measured in the presence of rosiglitazone or miRNA analogs, as shown below in Table 18.

UCP3 = test: RNA-Seq mRNA expression during pre-adipocyte differentiation: UCP3; assay type: cell-based, human; conditions: pre-adipocytes, 12 days, rosiglitazone 100 nM renewed every other day, miRNA analogs 25 nM, one transfection
Procedure: as §1, §2, §3

Row | Structure (SMILES) | Average size of lipid droplet [1] | Picture field covered by adipocytes (% of control) [1] | Cell area occupied by lipid droplets (%) [1] | Number of lipid droplet per cell [1] | cell density and browning appearance (bright field, FIG. 22) ([1]; in reference to the control condition) | mRNA Expression changes UCP1 (UCP1) | mRNA Expression changes UCP3 (UCP3)
1 | C[C@H](Cc1ccc2c(c1)OC(C(=O)[O-])(C(=O)[O-])O2)NC[C@H](O)c1cccc(Cl)c1.[Na+].[Na+] [CL316,243] | −44% | +24% of control | 44% | 124 | increase in cell density and “browning” appearance |  | 
2 | CN(CCOc1ccc(CC2SC(=O)NC2=O)cc1)c1ccccn1 (centres unmarked) [Rosiglitazone] | −19% | +198% of control | 57% | 113 |  | 15.70 log ratios | 0.26 log ratios
